In paper PMC10747112, “Triphenylphosphine Derivatives of Allylbenzenes Express Antitumor and Adjuvant Activity When Solubilized with Cyclodextrin-Based Formulations” (Pharmaceuticals, 2023):
≈ marks a conversion by molar mass, not a printed value. Where two headings read alike, the source gives them in different places. Marks after values point to notes of the source that are not given here.

Assays:
[1] = Solubility by UV spectroscopy (PBS, with and without M-β-CD); format: physicochemical; details: PBS
Method: On the contrary, their complexes with M-β-CD are soluble, and a clear peak in the UV spectrum is pronounced (225 nm). Based on UV spectra data in the presence of M-β-CD, the increase in solubility of apiol-PPh3 and analogues by a second order of magnitude is observed (Table 2).
The solubility of apiol and apiol-PPh3 (or analogues) in aqueous solution was determined by UV spectroscopy. UV spectra were recorded on the UltraSpec 2100 pro device (AmerSham Biosciences, Cambridge, UK) three times. The substances were dissolved in acetonitrile followed by recording the UV spectra at various cytostatics’ concentrations, and then we plotted calibration dependencies. Next, saturated solutions of substances in water were prepared, and the spectra of the aqueous solutions were recorded. Considering the extinction coefficients in water and acetonitrile to be approximately equal, the solubility was determined.

A549 cells [2] = assay: MTT assay, synergy of adjuvants with paclitaxel against A549; format: cell-based, human; details: X − M-β-CD, SC = CV(paclitaxel) × CV(adjuvant)/CV(combo)
From the text: Apparently PPh3 derivatives effectively penetrate into cancer cells along a potential gradient, inhibit efflux proteins and mitochondrial enzymes, causing the apoptosis of cancer cells, with IC50 values being lower by two orders of magnitude than the corresponding allylbenzene (Table 3). […] For allylbenzenes, a synergy close to additivity (the cytostatic effect of adjuvant + paclitaxel is almost equal to the sum of their individual contributions) was observed; for PPh3 derivatives, a pronounced increase in the action of paclitaxel is characteristic (the cytostatic effect of adjuvant + paclitaxel is much higher (>) than the sum of their individual contributions). For apiol-PPh3, the most pronounced effect of increasing the activity of paclitaxel was observed (Figure 4b).
Figure 4 Viability of A549 cells in the presence of paclitaxel and allylbenzenes’ PPh3 derivatives in the form of complexes with M-β-CD (1:5 mol/mol). MTT assay. (a) Dose–effect graphs. (b) MTT assay results for 100 nM paclitaxel alone and combined with allylbenzenes’ PPh3 derivatives in the form of complexes with M-β-CD (1:5 mol/mol).
(§1) The cytotoxic activity of paclitaxel, Apiol-PPh3 and analogues was determined using an MTT test. Paclitaxel-adjuvant synergism coefficients (SC) were calculated as CV (paclitaxel) × CV (alone adjuvant)/CV (combo paclitaxel + adjuvant), where CV represents the cell viability. The synergy coefficient can be interpreted as strong synergy (SC > 2), synergy (2 > SC > 1.2), indifference/additivity (1.2 > SC > 0.8), antagonism (0.8 > SC > 0.5), and inhibition (SC < 0.5), as described earlier.

A549 cells [3] = assay: MTT assay, cytotoxic activity against A549; format: cell-based; details: Homo sapiens
Method: Concentrations of the active substance varied from 10^−2 to 10^−4 M. For MTT assay and biological experiments, substances in the concentration range from 10^−3 to 10^−9 M were studied by the dilution of initial ones in a cell growth medium or buffer.
Adenocarcinomic human alveolar basal epithelial cells A549 cell lines (Manassas, VA, USA) were cultured in RPMI-1640 medium, linear cells of the embryonic kidney human epithelium (HEK293T) were grown in DMEM medium as described earlier. Cell lines were obtained from Lomonosov Moscow State University Depository of Live Systems Collection and Laboratory of Medical Biotechnology, Institute of Biomedical Chemistry (Moscow, Russia).
as §1

[4] = set-up: unit not given here; details: unmodified allylbenzenes; cited from earlier work
cytochrome P450 3A4 = details: read-out: IC50 cytochrome P450 3A4; cited from earlier work
cancer cells = test system: cancer cells; set-up: method as in PMID 35128247; details: dillapiol 25–50 µM; cited from earlier work
sea urchin embryos = assay: Phenotypic sea urchin embryo assay; format: in vivo; details: X in M-β-CD
From the text: (§2) Hemolytic activity and thrombogenicity are the primary parameters for evaluating the safety of medical formulations. The phenotypic sea urchin embryo assay developed by colleagues is a visual way to study the toxicity of formulations in vivo. The sea urchin and human genomes contain more than 7000 common genes, including orthologs associated with a number of human diseases. Therefore, sea urchins can be considered as a reliable and versatile model organism for studying the safety of new and existing cytotoxic formulations in vivo. Table 5 presents data on the % of erythrocyte hemolysis, the degree of whole blood thrombosis of apiol-PPh3 and analogues, and data of phenotypic sea urchin embryo assay. Thus, the non-toxicity of PPh3 derivatives of allylbenzenes for normal non-cancer cells, as well as the selectivity of action against cancer cells, is shown. The selectivity of cytotoxic action against cancer cells in comparison with normal cells can be explained by the fact that the PPh3- cation provides selective accumulation and reduction in the mitochondrial membrane potential of the transformed cancer cells. Cyclodextrin (M-β-CD) and heparin are non-toxic (and approved by the FDA for intravenous application).
Adult sea urchins, Paracentrotus lividus L. (Echinidae), were collected from the Mediterranean Sea on the Cyprus coast and kept in an aerated seawater tank and were used to study the cleavage alteration of Apiol-PPh3 and analogues. Experiments with sea urchin embryos comply with the requirements of biological ethics.

erythrocytes = assay: Hemolytic activity; format: cell-based; details: X in M-β-CD; 0.1 mg/mL; released hemoglobin relative to 0.05% Triton X-100 control
From the text: as §2
(§3) The hemolytic activity and thrombogenicity of apiol-PPh3 and analogues were studied using an earlier published technique.

whole blood = assay: Thrombogenicity (whole blood thrombosis); details: X in M-β-CD; 0.1 mg/mL; relative to control with microscopic glass particles
From the text: as §2, §3

HEK293T cells = assay: FTIR spectroscopy of HEK293T cells during incubation with drug (penetration/adsorption); format: cell-based, human; details: 60 min incubation (apiol-PPh3 in M-β-CD) or pre-incubation (doxorubicin controls); 37 °C
From the text: The main cell structural units that contribute to the absorption of IR diapason can be assigned as follows (Figure 5): lipids of the cell membrane (2800–3000 cm^−1), proteins, especially transmembrane (1500–1700 cm^−1), phosphate groups of DNA (1240 cm^−1) and carbohydrates, including lipopolysaccharides (900–1100 cm^−1). Previously, we developed a technique for tracking the penetration and adsorption of the drug into cells using FTIR spectroscopy: dramatic changes in the intensity of the peaks of amide 1 and amide 2 indicate effective penetration of the drug into cells and vice versa.
Here, we present the real-time data of FTIR spectroscopy during the incubation of a suspension of HEK293T cells with apiol-PPh3 in M-β-CD (Figure 5). […] There is only a shift of the peak of amide 1 to the low-frequency region (inserts in Figure 5, the normalized intensity is shown) and amide 2 to the high-frequency region with the simultaneous appearance of the shoulder. This indicates the only adsorption of drug molecules on the cell surface, which is also confirmed by a weak increase in the intensity of the peaks at 2850–3000 cm^−1 corresponding to the valence vibrations of the CH2 groups (lipid bilayer). Thus, PPh3 derivatives show only marginal activity against normal cells.

[5] = A549, read-out: −lg (IC50) of X in M-β-CD against A549
[6] = A549, X in M-β-CD 1:5 mol/mol, MTT, read-out: −lg (IC50) of X in M-β-CD against A549 (converted)

In the case of C=CCc1cc(OC)c(OC)c(OC)c1OC [Allyltetramethoxybenzene, allyltetramethoxybenzene, reference compound], the “Solubility in PBS” value [1] is reported as 160 ± 20 µM (≈ 38.1 µg/mL), the “Synergy Coefficients of Adjuvants and PPh3–Adjuvants with Paclitaxel” value (“Synergy Coefficients” below) (A549 cells [2]) is reported as 1.4 ± 0.2 and the IC50 (A549 cells [3]; [5]) is reported as 316 µM. The “−lg Kd (X − M-β-CD)” value [4] was 3.4 ± 0.3.

For C=CCc1cc(OC)c2c(c1OC)OCO2 [Apiol, 1-allyl-2,5-dimethoxy-3,4-methylenedioxybenzene], the IC50 (cytochrome P450 3A4) is listed as 7.9 µM, the “Solubility in PBS” value [1] is listed as 130 ± 10 µM (≈ 28.9 µg/mL) and the “Synergy Coefficients” value (A549 cells [2]) is listed as 1.3 ± 0.2. The IC50 (A549 cells [3]; [5]) was 251 µM and the “−lg Kd (X − M-β-CD)” value [4] was 2.6 ± 0.3.

In the case of C=CCc1cc2c(c(OC)c1OC)OCO2 [Dillapiol, dillapiol], the “effect on cell cycle / apoptosis of cancer cells” value (cancer cells) is given as “induced G0/G1 cell cycle arrest”, the “Synergy Coefficients” value (A549 cells [2]) is given as 1.1 ± 0.1 and the IC50 (A549 cells [3]; [6]) is given as 631 µM. For the same molecule, the “−lg Kd (X − M-β-CD)” value [4] was 2.7 ± 0.5.

With C=CCc1cc(OC)c2c(c1)OCO2 [Myristicin, myristicin, reference compound] the solubility ([1]; aqueous buffer, thermodynamic from solid, read-out: Solubility in PBS) was 30 ± 7 µM (≈ 5.77 µg/mL), the “Synergy Coefficients” value (A549 cells [2]) was 0.9 ± 0.2 and the IC50 (A549 cells [3]; [6]) was 1260 µM. For the same molecule, the “−lg Kd (X − M-β-CD)” value [4] was 3.5 ± 0.2.

In the case of CC(=O)O[C@H]1C(=O)[C@@]2(C)[C@H]([C@H](OC(=O)c3ccccc3)[C@]3(O)C[C@H](OC(=O)[C@H](O)[C@@H](NC(=O)c4ccccc4)c4ccccc4)C(C)=C1C3(C)C)[C@]1(OC(C)=O)CO[C@@H]1C[C@@H]2O [Paclitaxel, paclitaxel, reference compound], the “Concentration Causing Changes in Sea Urchin Embryos” value (sea urchin embryos) is reported as >4 *** μM, the IC50 (A549 cells [3]; [6]) is reported as 0.631 µM and the “Hemolysis Index” value (erythrocytes) is reported as <0.5 (p = 0.012) %. The “Thrombosis Index” value (whole blood) was 0.6 ± 0.1%.

In the case of COc1cccc2c1C(=O)c1c(O)c3c(c(O)c1C2=O)C[C@@](O)(C(=O)CO)C[C@@H]3O[C@H]1C[C@H](N)[C@H](O)[C@H](C)O1 [doxorubicin, reference compound], the “changes in FTIR amide I and II peak intensity of HEK293T cells (drug penetration)” value (HEK293T cells) is reported as “Dramatic changes in the intensity of the amide 1 and amide 2 peaks”.
